Biological target: T1, ∞vβ3 (Homo sapiens, UniProt P05106+P06756)
T1 construct: performed on HUVEC cells overexpressing ∞vβ3; endogenous in cells; host or cells: HUVEC
Test: IC50 by competition with echistatin 125I on HUVEC cells
Format: binding
Details: competition with echistatin-125I-SIB, read-out: IC50 (nM of targeting ligand)

## CCCCCCCCCCCCCCCCCC(=O)OCC(COP(=O)(O)OCCNC(=O)OCCOCCOCCOCCOCCOCCOCCOCCOCCOCCOCCOCCOCCOCCOCCOCCOCCOCCOCCOCCOCCOCCOCCOCCOCCOCCOCCOCCOCCOCCOCCOCCOCCOCCOCCOCCOCCOCCOCCOCCOCCOCCOCCOCCOCCNc1c(NCCNC(=O)CCCOc2cc(C)c(S(=O)(=O)CNC(NC(=O)CCCCc3ccc4c(n3)NCCC4)C(=O)O)c(C)c2)c(=O)c1=O)OC(=O)CCCCCCCCCCCCCCCCC (stereo not shown) [Example 6]
  IC50: 0.4 nM
